In PMC6407579, “New flavonoid – N,N-dibenzyl(N-methyl)amine hybrids: Multi-target-directed agents for Alzheimer´s disease endowed with neurogenic properties” (Journal of Enzyme Inhibition and Medicinal Chemistry, 2019):
“And” between values parts separate entries of the source, which are not always exact repeats. Identical values can stand only once.

What was measured:
[1] = system: Aβ levels in cerebrospinal fluid; set-up: method as in PMID 29719179; conditions: cited from earlier work
[2] = target: T1, human recombinant AChE (hAChE) (Homo sapiens, UniProt P22303); assay: biochemical; conditions: mean ± SEM (n = 3); read-out: hAChE IC50
T1 construct: purchased Sigma Chemical Co
Method: The Ellman method was followed, using human recombinant AChE and BuChE from human serum. The assay solution consisted of 0.1 M phosphate buffer pH 8.0, 400 μM 5,5´-dithiobis(2-nitrobenzoic acid) (DTNB, Ellman’s reagent), 0.05 U/mL hAChE (Sigma Chemical Co.) or 0.024 U/mL hBuChE (Sigma Chemical Co.), and 800 μM acetylthiocholine iodide, or 500 μM butyrylthiocholine as the substrate of the enzymatic reaction, respectively. The compounds tested were added to the assay solution and preincubated with the enzyme for 5 min at 30 °C. After that period, the substrate was added.

recombinant hMAO-A = target: T2, recombinant hMAO-A (Homo sapiens, UniProt P21397); assay: biochemical; format: biochemical
T2 sequence (P21397 1-527): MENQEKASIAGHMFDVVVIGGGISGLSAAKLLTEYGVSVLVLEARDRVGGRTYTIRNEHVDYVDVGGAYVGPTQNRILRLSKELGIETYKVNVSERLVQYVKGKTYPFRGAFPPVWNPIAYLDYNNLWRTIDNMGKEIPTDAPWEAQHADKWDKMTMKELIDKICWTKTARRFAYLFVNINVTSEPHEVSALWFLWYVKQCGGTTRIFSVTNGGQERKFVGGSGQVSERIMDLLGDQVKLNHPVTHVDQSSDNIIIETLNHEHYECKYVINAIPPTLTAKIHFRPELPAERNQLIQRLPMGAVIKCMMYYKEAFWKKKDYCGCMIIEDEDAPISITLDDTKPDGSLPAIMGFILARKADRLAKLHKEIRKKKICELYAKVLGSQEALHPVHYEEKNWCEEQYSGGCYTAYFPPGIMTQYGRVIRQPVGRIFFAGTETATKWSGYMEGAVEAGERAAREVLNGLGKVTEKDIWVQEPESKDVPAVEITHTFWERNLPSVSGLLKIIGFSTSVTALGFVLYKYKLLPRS

recombinant hMAO-B = target: T3, recombinant hMAO-B (Homo sapiens, UniProt P27338); assay: biochemical; format: biochemical; conditions: mean ± SEM (n = 3); 100 µM highest concentration tested
T3 sequence (P27338 1-520): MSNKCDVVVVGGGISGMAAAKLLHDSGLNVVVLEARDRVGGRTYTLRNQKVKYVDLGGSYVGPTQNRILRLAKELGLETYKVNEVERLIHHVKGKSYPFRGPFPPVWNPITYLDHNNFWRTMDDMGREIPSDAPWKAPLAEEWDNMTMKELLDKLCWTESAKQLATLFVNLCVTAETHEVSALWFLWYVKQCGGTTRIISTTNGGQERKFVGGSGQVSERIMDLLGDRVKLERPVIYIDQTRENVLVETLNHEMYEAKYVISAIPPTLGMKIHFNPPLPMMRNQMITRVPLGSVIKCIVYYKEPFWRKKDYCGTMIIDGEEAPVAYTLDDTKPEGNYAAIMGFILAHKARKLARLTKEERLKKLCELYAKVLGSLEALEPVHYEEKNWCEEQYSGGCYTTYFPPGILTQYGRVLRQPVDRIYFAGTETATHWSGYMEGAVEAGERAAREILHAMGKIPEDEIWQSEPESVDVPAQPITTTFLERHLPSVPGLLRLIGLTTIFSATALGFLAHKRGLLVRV

[3] = Oxygen radical absorbance capacity assay (ORAC); conditions: trolox taken as 1.0
[4] = In vitro blood-brain barrier permeation assay (PAMPA-BBB); format: in vitro ADME; conditions: pig, pH 7.4, porcine brain lipid, PBS:ethanol (70:30), 25 °C, read-out: PAMPA-BBB permeability in the CNS (Pe)
Method: Prediction of the brain penetration was evaluated using a parallel artificial membrane permeation assay (PAMPA-BBB), in a similar manner as previously described[36]^,[46]^,[51–53]. Pipetting was performed with a semi-automatic pipettor (CyBi®-SELMA) and UV reading with a microplate spectrophotometer (Multiskan Spectrum, Thermo Electron Co.). Commercial drugs, phosphate buffered saline solution at pH 7.4 (PBS), and dodecane were purchased from Sigma, Aldrich, Acros, and Fluka. Millex filter units (PVDF membrane, diameter 25 mm, pore size 0.45 μm) were acquired from Millipore. The porcine brain lipid (PBL) was obtained from Avanti Polar Lipids. The donor microplate was a 96-well filter plate (PVDF membrane, pore size 0.45 μm) and the acceptor microplate was an indented 96-well plate, both from Millipore. The acceptor 96-well microplate was filled with 200 μL of PBS: ethanol (70:30) and the filter surface of the donor microplate was impregnated with 5 μL of porcine brain lipid (PBL) in dodecane (20 mg mL^−1). Compounds were dissolved in PBS: ethanol (70:30) at 100 μg mL^−1, filtered through a Millex filter, and then added to the donor wells (200 μL). The donor filter plate was carefully put on the acceptor plate to form a sandwich, which was left undisturbed for 120 min at 25 °C. After incubation, the donor plate is carefully removed and the concentration of compounds in the acceptor wells was determined by UV-Vis spectroscopy. Every sample is analysed at five wavelengths, in four wells and at least in three independent runs, and the results are given as the mean ± standard deviation. In each experiment, 11 quality control standards of known BBB permeability were included to validate and normalise the analysis set.
To check if new compounds could be able to reach their CNS-targets, we used the in vitro parallel artificial membrane permeability assay for the blood-brain barrier (PAMPA-BBB) described by Di et al.[87], and partially modified by us for testing molecules with limited water-solubility[36]^,[46]^,[51–53]. The passive CNS-permeation of new compounds 1–13 through a lipid extract of porcine brain was measured at room temperature. In each experiment, 11 commercial drugs of known brain permeability were also tested and their permeability values normalised to the reported PAMPA-BBB data. […].

σ1R = target: T4, σ1R (Cavia porcellus, UniProt Q60492); assay: Sigma-1 receptor binding, [3H]-(+)-pentazocine competition; set-up: species or system guinea pig
T4 construct: the thawed membrane preparation of guinea pig brain cortex; from tissue; host or cells: guinea pig brain cortex membranes

σ2R = target: T5, σ2R (Rattus norvegicus, UniProt Q5U3Y7); assay: Sigma-2 receptor binding, [3H]-DTG competition
T5 construct: 150 µg of rat liver homogenate were incubated; from tissue; host or cells: rat liver homogenate
T5 sequence (Q5U3Y7 1-176): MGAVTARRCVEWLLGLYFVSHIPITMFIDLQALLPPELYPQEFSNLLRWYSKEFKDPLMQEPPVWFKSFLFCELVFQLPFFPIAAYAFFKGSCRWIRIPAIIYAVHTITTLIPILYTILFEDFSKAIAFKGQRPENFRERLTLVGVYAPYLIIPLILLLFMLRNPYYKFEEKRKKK

T4 sequence (Q60492 whole entry): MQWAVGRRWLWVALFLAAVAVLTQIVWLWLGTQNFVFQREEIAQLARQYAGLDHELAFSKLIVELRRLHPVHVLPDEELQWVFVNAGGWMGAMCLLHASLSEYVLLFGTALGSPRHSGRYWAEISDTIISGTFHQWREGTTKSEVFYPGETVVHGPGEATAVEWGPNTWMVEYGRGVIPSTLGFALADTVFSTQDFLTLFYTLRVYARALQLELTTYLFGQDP
T1 sequence (P22303 32-614): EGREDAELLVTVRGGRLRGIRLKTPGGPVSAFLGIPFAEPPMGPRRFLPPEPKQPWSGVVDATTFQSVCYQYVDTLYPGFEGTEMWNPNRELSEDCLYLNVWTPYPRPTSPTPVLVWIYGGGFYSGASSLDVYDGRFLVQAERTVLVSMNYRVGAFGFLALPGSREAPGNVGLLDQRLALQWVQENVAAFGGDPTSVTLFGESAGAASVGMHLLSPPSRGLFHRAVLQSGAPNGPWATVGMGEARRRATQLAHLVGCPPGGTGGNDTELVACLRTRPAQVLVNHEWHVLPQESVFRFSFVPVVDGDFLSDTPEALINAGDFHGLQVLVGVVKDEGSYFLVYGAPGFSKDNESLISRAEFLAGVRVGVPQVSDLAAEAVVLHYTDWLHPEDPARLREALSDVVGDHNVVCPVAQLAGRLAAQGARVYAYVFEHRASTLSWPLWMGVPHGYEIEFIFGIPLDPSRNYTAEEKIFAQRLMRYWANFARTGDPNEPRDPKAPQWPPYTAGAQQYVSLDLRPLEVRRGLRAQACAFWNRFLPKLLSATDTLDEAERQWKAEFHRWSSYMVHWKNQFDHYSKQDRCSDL

CN1C(=N)N[C@](C)(c2cc(NC(=O)c3ccc(F)cn3)ccc2F)CS1(=O)=O [verubecestat]
reduction of Aβ levels in cerebrospinal fluid [1]: up to 81%

CN(Cc1ccccc1)Cc1ccc(NC(=O)c2cc(=O)c3c(O)cc(O)cc3o2)cc1 [Compound 4, N-(4-((Benzyl(methyl)amino)methyl)phenyl)-5,7-dihydroxy-4-oxo-4H-chromene-2-carboxamide]
IC50 [2]: 1900 ± 600 nM | preference for hMAO-A compared to hMAO-B (recombinant hMAO-A): at least 4.4 times | IC50 (recombinant hMAO-A; mean ± SEM (n = 3), 100 µM highest concentration tested): 22800 ± 1500 nM | IC50 (recombinant hMAO-B): > 100000 nM | ORAC, trolox equivalents [3]: 1.2 mmol of trolox/mmol of tested compound and 1.2 ± 0.1 mmol of trolox/mmol of tested compound | Papp at 120 min, 100 μg mL^−1 [4]: 14.7 ± 1.2 ×10⁻⁶ cm/s | Ki (σ1R): 510 ± 70 nM | Selectivity vs. σ1R (Kiσ2R/Kiσ1R) (σ1R): > 5.9 | Ki (σ2R): > 3000 nM
